Common to all, as to assay: Cell viability assay (Cell-Titer GLO)
What all share (format): cell-based

The subject of assay [1] is 22RV1. The note with it: Homo sapiens, Prostate cancer, 48 hrs, read-out: Anti-proliferative EC50. On the procedure:
(§1) For cell viability, cells were seeded in 384 opaque-walled plates with clear bottoms at 300–500 cells per well (optimum density for growth) in a total volume of 20 μL of media. The media was according to culture conditions of each individual cell line (mentioned above). After 12 hrs, compounds were added in a total volume of 5 μL of media (two-fold diluted) to each well with final concentrations from 5 nM to 30 μM. The measurements were conducted 48 hrs after seeding of the cells. Then, 25 μL of Cell-Titer GLO reagent (Promega) was added, and luminescence was measured on an EnSpire multimode plate reader (PerkinElmer), according to the manufacturer’s instructions. The estimated in vitro half-maximal inhibitory concentration (EC50) values were calculated using GraphPad Prism® v6.0 (San Diego, CA) software. The cell viability for A549 cells was also performed for 72- and 96-hrs by using the same experimental conditions as described above.

Assay [2] deals with A431. The note with it: Homo sapiens, A-431; A431^c; Skin carcinoma; p53 null or mutant cancer cell lines; 48 hrs; read-out: Anti-proliferative EC50. Here is the method:
as §1

The test system of assay [3] is C4-2B. The note with it: Prostate cancer, 48 hrs, read-out: Anti-proliferative EC50. Here is the method: as §1
The test system of assay [4] is Du145. The note with it: Homo sapiens, DU-145, Prostate cancer, 48 hrs, read-out: Anti-proliferative EC50. Here is the method: as §1
Assay [5] concerns H1299. The note with it: Homo sapiens, NCI-H1299; H1299^b; Lung cancer; p53 null or mutant cancer cell lines; 48 hrs; read-out: Anti-proliferative EC50. On the procedure:
as §1

In assay [6] the test system is H1650. The note with it: Homo sapiens, NCI-H1650, Lung cancer, 48 hrs, read-out: Anti-proliferative EC50. Here is the method: as §1
The test system of assay [7] is H358. The note with it: Homo sapiens, NCI-H358; H358^b; Lung cancer; p53 null or mutant cancer cell lines; 48 hrs; read-out: Anti-proliferative EC50. Here is the method:
as §1

The test system of assay [8] is H460. Particulars: Homo sapiens, NCI-H460, Lung cancer, 48 hrs, read-out: Anti-proliferative EC50. On the procedure:
as §1

The test system of assay [9] is Hela. Particulars: Homo sapiens, Cervical cancer, 48 hrs, read-out: Anti-proliferative EC50. On the procedure: as §1
Assay [10] relates to HepG2. Particulars: Homo sapiens, Liver cancer, 48 hrs, read-out: Anti-proliferative EC50. On the procedure:
as §1

Assay [11] has as its system Hs578T. Particulars: Homo sapiens, Hs-578T, Breast cancer, 48 hrs, read-out: Anti-proliferative EC50. Here is the method: as §1
Assay [12] relates to LLC. The note with it: Lewis lung carcinoma; LLC^a; Lung cancer; 48 hrs; read-out: Anti-proliferative EC50. On the procedure: as §1
Assay [13] has as its system LNCaP. The note with it: Homo sapiens, Prostate cancer, 48 hrs, read-out: Anti-proliferative EC50. On the procedure: as §1
The test system of assay [14] is MCF-7. Particulars: Homo sapiens, MCF7, Breast cancer, 48 hrs, read-out: Anti-proliferative EC50. On the procedure: as §1
The test system of assay [15] is MDA-MB-231. The note with it: Homo sapiens, Breast cancer, 48 hrs, read-out: Anti-proliferative EC50. On the procedure: as §1
The test system of assay [16] is MGC-803. The note with it: Homo sapiens; MGC-803^c; Gastric cancer; p53 null or mutant cancer cell lines; 48 hrs; read-out: Anti-proliferative EC50. On the procedure: as §1
Assay [17] has as its system MKN-7. The note with it: Homo sapiens; MKN-7^c; Gastric cancer; p53 null or mutant cancer cell lines; 48 hrs; read-out: Anti-proliferative EC50. Here is the method: as §1
Assay [18] relates to NCI-N87. Particulars: Homo sapiens; NCI-N87^c; Gastric cancer; p53 null or mutant cancer cell lines; 48 hrs; read-out: Anti-proliferative EC50. On the procedure: as §1
The test system of assay [19] is U2OS. The note with it: Homo sapiens, Osteosarcoma, 48 hrs, read-out: Anti-proliferative EC50. Here is the method: as §1
Assay [20] has as its system βTC6. Particulars: βTC6^a; Pancreatic insulinoma; 48 hrs; read-out: Anti-proliferative EC50. Here is the method: as §1

By EC50 is commonly meant the concentration at which the effect is half-maximal. Turning to `Nc1ccc(-c2nc3ccccc3c3[nH]c4ccccc4c23)cc1` [Z0933M], the EC50 in [1] was 1110 ± 100 nM; in [2], more than 30000 nM; in assay [3], 1900 ± 70 nM; in assay [4] it was 250 ± 20 nM; in [5], 11500 ± 210 nM; in assay [6], 2350 ± 450 nM. Further, the EC50 in assay [7] was found to be 14900 ± 420 nM; in assay [8], 2690 ± 70 nM; in assay [9] it was 360 ± 60 nM; in assay [10], 4080 ± 950 nM; in assay [11], 2490 ± 70 nM; in [12], 1850 ± 350 nM. The EC50 is 880 ± 30 nM in assay [13]; 1460 ± 10 nM in assay [14]; 2900 ± 630 nM in assay [15]; more than 30000 nM in assay [16]; more than 30000 nM in [17]; more than 30000 nM in assay [18]. The concentration for a half-maximal effect (EC50) stood at 970 ± 90 nM in [19] and 370 ± 7 nM in assay [20].

The values are drawn from paper PMC9249674, “A small-molecule Skp1 inhibitor elicits cell death by p53-dependent mechanism” (iScience, 2022).
